The structures appear in SMILES notation. Activity calls are given as the source filed them. The calls are words filed in the database; no cut-off is given here.

Series [1] in a line: Cytotoxicity against human L02 cells assessed as reduction in cell viability measured after 24 hrs by MTT assay. Type of series: cell-based.
For series [2], the system named is SW-620. Put plainly: Antitumour activity against human SW-620 cells xenografted in Balb/c mouse assessed as decrease in Ki67 expression in tumour at 5 mg/kg, ip measured after 21 days immunochemical staining method. Type of series: functional, organism-based. Conditions: time 21.0 day.
The test system of series [3] is SW-620. Put plainly: Antitumour activity against human SW-620 cells xenografted in Balb/c mouse assessed as inhibition of tumour growth at 5 mg/kg, ip measured after 21 days. Conditions: SW-620, ip, 504 h, time 21 day, read-out: TGI. Type of series: functional.
In the next series the test system is HepG2. The experiment in a line: Antiproliferative activity against human HepG2 cells assessed as inhibition of cell proliferation measured after 24 hrs by MTT assay. The series is classed as functional, cell-based. The settings on record: HepG2, 24 h.
Series [4] can be described thus: Cytotoxicity against human MRC5 cells assessed as reduction in cell viability measured after 24 hrs by MTT assay. Type of series: cell-based.
Another series has as its system PANC-1. The experiment in a line: Antiproliferative activity against human PANC-1 cells assessed as inhibition of cell proliferation measured after 24 hrs by MTT assay. The settings on record: PANC-1, 24 h. Type of series: functional, cell-based.
The nature of series [5]: Cytotoxicity against human GES1 cells assessed as reduction in cell viability measured after 24 hrs by MTT assay. The series is classed as cell-based.
Series [6] can be described thus: Cytotoxicity against human IOSE80 cells assessed as reduction in cell viability measured after 24 hrs by MTT assay. Type of series: cell-based.
The test system of another series is SGC-7901. Put plainly: Antiproliferative activity against human SGC-7901 cells assessed as inhibition of cell proliferation measured after 24 hrs by MTT assay. Conditions: SGC-7901, 24 h. Type of series: functional, cell-based.
The next series has as its system A549. Put plainly: Antiproliferative activity against human A549 cells assessed as inhibition of cell proliferation measured after 24 hrs by MTT assay. Type of series: functional, cell-based. Conditions: A549, 24 h.
The next series relates to LoVo. The experiment in a line: Antiproliferative activity against human LoVo cells assessed as inhibition of cell proliferation measured after 24 hrs by MTT assay. Type of series: functional, cell-based.
The subject of another series is OVCAR-3. The experiment in a line: Antiproliferative activity against human OVCAR-3 cells assessed as inhibition of cell proliferation measured after 24 hrs by MTT assay. Type of series: functional, cell-based. Conditions: OVCAR-3, 24 h.
Series [7] can be described thus: Cytotoxicity against human NCM460 cells assessed as reduction in cell viability measured after 24 hrs by MTT assay. Type of series: cell-based.
The nature of series [8]: Cytotoxicity against human HPDE6c7 cells assessed as reduction in cell viability measured after 24 hrs by MTT assay. Type of series: functional.
Series [9] addresses Heat shock protein HSP 90-alpha (Homo sapiens, UniProt P07900). The experiment in a line: Inhibition of recombinant human N terminal his-tagged HSP90 alpha (1 to 732 residues) expressed in Escherichia coli measured after 60 mins by Flourescence polarization assay.

`C=CCNC1=C2C[C@@H](C)C[C@H](OC)[C@H](O)[C@@H](C)/C=C(\C)[C@H](OC(N)=O)[C@@H](OC)/C=C\C=C(/C)C(=O)NC(=CC1=O)C2=O` [TANESPIMYCIN]: the CC50 at 24 h in [1] is 11.7 µM; in series [4], 14.2 µM; in series [5], 7.94 µM; in series [6] it was 21.5 µM; in series [7] it was 14.2 µM. The outcome in the series on SW-620 [2] was Active. Also, the inhibition in vivo at 5 mg/kg in the series with SW-620 [3] was 29.6%. Further, the IC50 is 0.33 µM in the series on HepG2; 3.21 µM with PANC-1; over 10 µM in the series with SGC-7901; over 10 µM in the series with A549; 0.26 µM with LoVo; 0.48 µM with OVCAR-3. In addition, in series [8], the cytotoxic concentration (CC50) was found to be 19.5 µM.
On to `CC1(C)[C@H]2CC[C@]1(C)N(Cc1cn(-c3ccc(C#N)cc3)nn1)C(=O)C2`, for which the cytotoxic concentration (CC50) at 24 h in series [1] amounted to 15.7 µM; in series [4] it was 10.8 µM; in series [5] it was 11.2 µM; in series [6], 5.52 µM; in [7], 8.14 µM. For the same compound, the half-inhibitory concentration (IC50) in the series on HepG2 is 0.05 µM; in the series with PANC-1, 0.25 µM; in the series with SGC-7901, 0.5 µM; in the series with A549, 0.14 µM; in the series with LoVo, 0.09 µM; in [9] it was 0.0218 µM. Besides, the IC50 in the series on OVCAR-3 was found to be 0.38 µM. The CC50 in series [8] was over 100 µM.
Turning to `CC1(C)[C@H]2CC[C@]1(C)N(Cc1cn(-c3ccccc3)nn1)C(=O)C2`, the CC50 at 24 h in series [1] amounted to 6.23 µM; in series [4], 9.73 µM; in series [5], 6.69 µM; in [6] it was 23.4 µM; in [7], 19.6 µM. Also, the IC50 in the series on HepG2 was found to be 0.09 µM; in the series on PANC-1 it was 0.16 µM; with SGC-7901, 0.24 µM; in the series on A549, 0.07 µM; in the series with LoVo, 0.05 µM; in [9] it was 0.034 µM. Moreover, in the series on OVCAR-3, the IC50 is 0.05 µM. Further, the CC50 in [8] is over 100 µM.

These data come from ChEMBL document CHEMBL4813917, “2-((1-Phenyl-1H-1,2,3-triazol-4-yl)methyl)-2-azabicyclo[3.2.1]octan-3-one derivatives: Simplification and modification of aconitine scaffold for the discovery of novel anticancer agents” (Eur J Med Chem, 2021).
